Test results: patent US7109216B2 (priority 2001, dated 2006)
Read-outs that look alike come from different tables or passages of the source.

Columns and labels:
[1] = molecular target: human cannabinoid CB1 receptor (Homo sapiens, UniProt P21554); assay: biochemical; assay type: binding; set-up: expressed in transfected cells; host or cells: Chinese hamster ovary (CHO) cells, membrane preparation; details: [3H]CP-55,940 radioligand, CHO cell membranes stably transfected with human CB1
Method: After incubation of a freshly prepared cell membrane preparation with the [^3H]-ligand, with or without addition of compounds of the invention, separation of bound and free ligand was performed by filtration over glassfiber filters. Radioactivity on the filter was measured by liquid scintillation counting.

Sequence of human cannabinoid CB1 receptor (P21554 whole entry): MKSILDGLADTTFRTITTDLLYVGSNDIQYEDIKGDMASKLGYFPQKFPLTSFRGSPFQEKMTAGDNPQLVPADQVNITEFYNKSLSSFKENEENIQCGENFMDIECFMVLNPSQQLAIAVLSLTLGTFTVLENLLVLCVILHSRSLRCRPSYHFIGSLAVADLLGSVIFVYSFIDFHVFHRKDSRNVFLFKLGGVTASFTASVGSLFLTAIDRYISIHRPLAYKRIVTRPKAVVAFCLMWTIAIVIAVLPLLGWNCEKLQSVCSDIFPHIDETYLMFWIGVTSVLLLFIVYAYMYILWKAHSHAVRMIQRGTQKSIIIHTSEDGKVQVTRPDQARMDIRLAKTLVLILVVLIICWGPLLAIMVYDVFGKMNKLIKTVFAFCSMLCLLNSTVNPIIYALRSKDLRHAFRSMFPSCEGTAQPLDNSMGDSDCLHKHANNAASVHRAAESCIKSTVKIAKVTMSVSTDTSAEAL

Row | melting point | Ki ([1]; read-out: hCB1 pKi (converted)) | Compound | Ki ([1]; hCB1 pKi)
1 | 198 to 199 °C |  | CCc1c(C(=O)NC2CCCCC2)nc(-c2cc(Cl)ccc2Cl)n1-c1ccccc1 | 
2 | 211 to 213 °C |  | Cc1cccnc1-c1nc(C(=O)NN2CCCCC2)c(C)n1-c1ccc(Cl)cc1 | 
3 | 188 to 190 °C |  | Cc1cccnc1-c1nc(C(=O)NC2CCCCC2)c(C)n1-c1ccc(Cl)cc1 | 
4 | 115 °C |  | CCCCCNC(=O)c1cn(-c2ccc(Cl)cc2)c(-c2ccc(Cl)cc2OC)n1 | 
5 | 195 °C |  | O=C(NC1CCCCC1)c1cn(-c2cccnc2)c(-c2ccc(Cl)cc2Cl)n1 | 
6 | 212 °C |  | Cc1c(C(=O)NC2CCCCC2)nc(-c2ccc(Cl)cc2C(F)(F)F)n1-c1ccc(Cl)cc1 | 
7 | > 256 °C |  | COc1cc(Cl)ccc1-c1nc(C(=O)NN2CCCCC2)c(C)n1-c1ccc(Cl)cc1 | 
8 | 201 °C |  | COc1cc(Cl)ccc1-c1nc(C(=O)NC2CCCCC2)c(C)n1-c1ccc(Cl)cc1 | 
9 | 229 to 230 °C |  | Cc1c(C(=O)NC2CCCCC2)nc(-c2ccc(Cl)cc2Cl)n1-c1ccc(F)cc1 | 
10 | 195 to 196 °C |  | CCc1c(C(=O)NC2CCCCC2)nc(-c2ccc(C)n2C)n1-c1ccccc1 | 
11 | 157 to 159 °C | 501 nM | O=C(NC1CCCCC1)c1cn(-c2ccc(Cl)cc2)c(-c2ccc(Cl)cc2F)n1 [Example 33, N-Cyclohexyl-2-(2-fluoro-4-chlorophenyl)-1-(4-chlorophenyl)-1H-imidazole-4-carboxamide] | 
12 | 178 to 179 °C | 158 nM | Cc1c(C(=O)NC2CCCCC2)nc(-c2ccc(Cl)cc2Cl)n1-c1ccc(C(F)(F)F)cc1 [Example 47, N-Cyclohexyl-2-(2,4-dichlorophenyl)-5-methyl-1-(4-(trifluoromethyl)phenyl)-1H-imidazole-4-carboxamide] | 
13 | 160 to 161 °C | 126 nM | COc1ccc(-n2c(-c3ccc(Cl)cc3Cl)nc(C(=O)NC3CCCCC3)c2C)cc1 [Example 49, N-(1-cyclohexyl)-2-(2,4-dichlorophenyl)-5-methyl-1-(4-methoxyphenyl)-1H-imidazole-4-carboxamide] | 
14 | 165 °C | 200 nM | Cc1c(C(=O)NN2CCCCC2)nc(-c2ccc(Cl)cc2C(F)(F)F)n1-c1ccc(Cl)cc1 [Example 58, 1-(4-Chlorophenyl)-5-methyl-N-(piperidin-1-yl)-2-(2-trifluoromethyl-4-chlorophenyl)-1H-imidazole-4-carboxamide] | 
15 | 195 °C | 501 nM | Cc1c(C(=O)NN2CCCCC2)nc(-c2ccc(Cl)cc2F)n1-c1ccc(Cl)cc1 [Example 66, 1-(4-Chlorophenyl)-2-(2-fluoro-4-chlorophenyl)-5-methyl-N-(piperidin-1-yl)-1H-imidazole-4-carboxamide] | 
16 | 144 to 146 °C |  | CCc1c(C(=O)NC2CCCCC2)nc(-c2ccc(Cl)cc2Cl)n1-c1cc(F)ccc1F [Example 97, N-Cyclohexyl-2-(2,4-dichlorophenyl)-1-(2,5-difluorophenyl)-5-ethyl-1H-imidazole-4-carboxamide] | 
17 | 206 to 208 °C |  | Cc1c(C(=O)NC2CCCCC2)nc(-c2ccc(Cl)cc2Cl)n1-c1cc(F)ccc1F [Example 98, N-Cyclohexyl-2-(2,4-dichlorophenyl)-1-(2,5-difluorophenyl)-5-methyl-1H-imidazole-4-carboxamide] | 

More lines, now with the values behind:

Row | Compound | melting point | Ki ([1]; read-out: hCB1 pKi (converted)) | Ki ([1]; hCB1 pKi)
18 | CCc1c(C(=O)NN2CCCCC2)nc(-c2cc(Cl)ccc2Cl)n1-c1ccccc1 | 207 to 208 °C |  | 
19 | O=C(NN1CCCC1)c1cn(-c2ccc(Br)cc2)c(-c2ccc(Cl)cc2Cl)n1 | 238 to 240 °C |  | 
20 | CCN(CC)C(=O)c1cn(-c2ccc(Cl)cc2)c(-c2ccc(Cl)cc2Cl)n1 | 177 to 179 °C |  | 
21 | O=C(NC12CC3CC(CC(C3)C1)C2)c1cn(-c2ccc(Cl)cc2)c(-c2ccc(Cl)cc2C(F)(F)F)n1 | 288 °C |  | 
22 | O=C(NCC(F)(F)F)c1cn(-c2ccc(Cl)cc2)c(-c2ccc(Cl)cc2C(F)(F)F)n1 | 149 °C |  | 
23 | CCCCCNC(=O)c1cn(-c2cccnc2)c(-c2ccc(Cl)cc2Cl)n1 | 117 °C |  | 
24 | CCCCCNC(=O)c1nc(-c2ccccc2Cl)n(-c2cccc(F)c2)c1C | 97 to 102 °C |  | 
25 | O=C(Nc1ccccc1)c1cn(-c2ccc(Cl)cc2)c(-c2ccc(Cl)cc2Cl)n1 [Example 4, 1-(4-Chlorophenyl)-2-(2,4-dichlorophenyl)-N-phenyl-1H-imidazole-4-carboxamide] |  | 126 nM | 
26 | Cc1c(C(=O)NOC(C)(C)C)nc(-c2ccc(Cl)cc2)n1-c1ccc(Cl)cc1Cl [Example 11, N-(t-Butoxy)-2-(4-chlorophenyl)-1-(2,4-dichlorophenyl)-5-methyl-1H-imidazole-4-carboxamide] |  | 501 nM | 
27 | COc1cc(Cl)ccc1-c1nc(C(=O)NN2CCCCC2)cn1-c1ccc(Cl)cc1 [Example 28, 1-(4-Chlorophenyl)-2-(2-methoxy-4-chlorophenyl)-N-(piperidin-1-yl)-1H-imidazole-4-carboxamide] | 220 °C |  | 63.1 nM
28 | O=C(NN1CCCCC1)c1cn(-c2ccc(Cl)cc2)c(-c2ccc(Cl)cc2F)n1 [Example 30, 1-(4-Chlorophenyl)-2-(2-fluoro-4-chlorophenyl)-N-(piperidin-1-yl)-1H-imidazole-4-carboxamide] | 217 to 218 °C |  | 25.1 nM
29 | O=C(NN1CCCCC1)c1cn(-c2ccc(F)cc2)c(-c2ccc(Cl)cc2Cl)n1 [Example 31, 2-(2,4-Dichlorophenyl)-1-(4-fluorophenyl)-N-(piperidin-1-yl)-1H-imidazole-4-carboxamide] | 175 to 176 °C | 200 nM | 
30 | O=C(NC1CCCCC1)c1cn(-c2ccc(F)cc2)c(-c2ccc(Cl)cc2Cl)n1 [Example 32, N-Cyclohexyl-2-(2,4-dichlorophenyl)-1-(4-fluorophenyl)-1H-imidazole-4-carboxamide] | 184 to 185 °C |  | 25.1 nM
31 | COc1ccc(-n2cc(C(=O)NN3CCCCC3)nc2-c2ccc(Cl)cc2Cl)cc1 [Example 35, 2-(2,4-Dichlorophenyl)-1-(4-methoxyphenyl)-N-(piperidin-1-yl)-1H-imidazole-4-carboxamide] | 178 to 179 °C |  | 50.1 nM
32 | O=C(NN1CCCCC1)c1cn(-c2cccnc2)c(-c2ccc(Cl)cc2Cl)n1 [Example 42, 2-(2,4-Dichlorophenyl)-1-(pyridin-3-yl)-N-(piperidin-1-yl)-1H-imidazole-4-carboxamide] | 165 to 170 °C |  | 
33 | Cc1c(C(=O)N(C)C)nc(-c2ccc(Cl)cc2Cl)n1-c1ccc(Cl)cc1 [Example 50, 1-(4-Chlorophenyl)-2-(2,4-dichlorophenyl)-N,N,5-trimethyl-1H-imidazole-4-carboxamide] |  |  | 5.01 nM
34 | Cc1c(C(=O)NN2CCCCCC2)nc(-c2ccc(Cl)cc2Cl)n1-c1ccc(Cl)cn1 [Example 53, N-(1-Azepanyl)-1-(5-Chloropyridin-2-yl)-2-(2,4-dichlorophenyl)-5-methyl-1H-imidazole-4-carboxamide] |  |  | 50.1 nM
35 | Cc1c(C(=O)NC2CCCCC2)nc(-c2ccc(Cl)cc2Cl)n1-c1ccc(Cl)cn1 [Example 54, 1-(5-Chloropyridin-2-yl)-N-cyclohexyl-2-(2,4-dichlorophenyl)-5-methyl-1H-imidazole-4-carboxamide] |  |  | 100 nM
36 | CCCCCNC(=O)c1nc(-c2ccc(Cl)cc2Cl)n(-c2ccc(Cl)cn2)c1C [Example 55, 1-(5-Chloropyridin-2-yl)-2-(2,4-dichlorophenyl)-5-methyl-N-(n-pentyl)-1H-imidazole-4-carboxamide] |  |  | 50.1 nM
37 | Cc1c(C(=O)NCc2ccc(F)cc2)nc(-c2ccc(Cl)cc2Cl)n1-c1ccc(Cl)cn1 [Example 56, 1-(5-Chloropyridin-2-yl)-2-(2,4-dichlorophenyl)-N-(4-fluorobenzyl)-5-methyl-1H-imidazole-4-carboxamide] | 123 to 126 °C | 158 nM | 
38 | CCCCCNC(=O)c1nc(-c2ccc(Cl)cc2OC)n(-c2ccc(Cl)cc2)c1C [Example 59, 1-(4-Chlorophenyl)-2-(2-methoxy-4-chlorophenyl)-5-methyl-N-(n-pentyl)-1H-imidazole-4-carboxamide] | 131 °C |  | 501 nM
39 | CCCCCNC(=O)c1nc(-c2ccc(Cl)cc2Cl)n(-c2ccc(Cl)cn2)c1CC [Example 79, 1-(5-Chloropyridin-2-yl)-2-(2,4-dichlorophenyl)-5-ethyl-N-(n-pentyl)-1H-imidazole-4-carboxamide] |  |  | 15.8 nM
40 | Cc1c(C(=O)C2NCCc3ccccc32)nc(-c2ccc(Cl)cc2Cl)n1-c1ccc(Cl)cc1 (centres unmarked) [Example 88, 1-{[1-(4-Chlorophenyl)-2-(2,4-dichlorophenyl)-5-methyl-1H-imidazol-4-yl]carbonyl}-1,2,3,4-tetrahydroisoquinoline] | 143 to 146 °C |  | 
41 | Cc1c(C(=O)NC2CC3CCC2C3)nc(-c2ccc(Cl)cc2Cl)n1-c1ccc(Cl)cc1 (stereo not drawn) [Example 89, N-(Endo-bicyclo[2.2.1]hept-2-yl)-1-(4-chlorophenyl)-2-(2,4-dichlorophenyl)-5-methyl-1H-imidazole-4-carboxamide] |  |  | 6.31 nM
42 | CCCCCNC(=O)c1nc(-c2ccc(Cl)cc2Cl)n(-c2ccc(Cl)cc2)c1C [Example 91, 1-(4-Chlorophenyl)-2-(2,4-dichlorophenyl)-5-methyl-N-(n-pentyl)-1H-imidazole-4-carboxamide] |  |  | 31.6 nM
43 | CS(=O)(=O)c1c(C(=O)NC2CCCCC2)nc(-c2ccc(Cl)cc2Cl)n1-c1ccc(Cl)cc1 [Example 119, 1-(4-chlorophenyl)-2-(2,4-dichlorophenyl)-5-methylsulfonyl-N-(cyclohexyl)-1H-imidazole-4-carboxamide] |  |  | 63.1 nM
44 | CSc1c(C(=O)NC2CCCCC2)nc(-c2ccc(Cl)cc2Cl)n1-c1ccc(Cl)cc1 [Example 121, 1-(4-chlorophenyl)-2-(2,4-dichlorophenyl)-5-methylsulfanyl-N-(cyclohexyl)-1H-imidazole-4-carboxamide] |  |  | 63.1 nM
